What all share (assay): cell-based
One assay has as its target hNav1.7 (Homo sapiens, UniProt Q15858). The format is cell-based. Particulars: PatchXpress, read-out: PX hNav1.7 Tonic IC50.
The target in a further assay is hNav1.5 (Homo sapiens, UniProt Q14524). Particulars: for IC50: PatchXpress, * = at high concentrations compound would wash off slowly or not at all, read-out: PX hNav1.5 Tonic IC50.
The next assay addresses hNav1.4 (Homo sapiens, UniProt P35499). Particulars: for IC50: PatchXpress, * = at high concentrations compound would wash off slowly or not at all, read-out: PX hNav1.4 Tonic IC50.
[1] abbreviates: * = at high concentrations compound would wash off slowly or not at all.

Where two headings read alike, the source gives them in different places.

hNav1.5, sequence (Q14524 whole entry): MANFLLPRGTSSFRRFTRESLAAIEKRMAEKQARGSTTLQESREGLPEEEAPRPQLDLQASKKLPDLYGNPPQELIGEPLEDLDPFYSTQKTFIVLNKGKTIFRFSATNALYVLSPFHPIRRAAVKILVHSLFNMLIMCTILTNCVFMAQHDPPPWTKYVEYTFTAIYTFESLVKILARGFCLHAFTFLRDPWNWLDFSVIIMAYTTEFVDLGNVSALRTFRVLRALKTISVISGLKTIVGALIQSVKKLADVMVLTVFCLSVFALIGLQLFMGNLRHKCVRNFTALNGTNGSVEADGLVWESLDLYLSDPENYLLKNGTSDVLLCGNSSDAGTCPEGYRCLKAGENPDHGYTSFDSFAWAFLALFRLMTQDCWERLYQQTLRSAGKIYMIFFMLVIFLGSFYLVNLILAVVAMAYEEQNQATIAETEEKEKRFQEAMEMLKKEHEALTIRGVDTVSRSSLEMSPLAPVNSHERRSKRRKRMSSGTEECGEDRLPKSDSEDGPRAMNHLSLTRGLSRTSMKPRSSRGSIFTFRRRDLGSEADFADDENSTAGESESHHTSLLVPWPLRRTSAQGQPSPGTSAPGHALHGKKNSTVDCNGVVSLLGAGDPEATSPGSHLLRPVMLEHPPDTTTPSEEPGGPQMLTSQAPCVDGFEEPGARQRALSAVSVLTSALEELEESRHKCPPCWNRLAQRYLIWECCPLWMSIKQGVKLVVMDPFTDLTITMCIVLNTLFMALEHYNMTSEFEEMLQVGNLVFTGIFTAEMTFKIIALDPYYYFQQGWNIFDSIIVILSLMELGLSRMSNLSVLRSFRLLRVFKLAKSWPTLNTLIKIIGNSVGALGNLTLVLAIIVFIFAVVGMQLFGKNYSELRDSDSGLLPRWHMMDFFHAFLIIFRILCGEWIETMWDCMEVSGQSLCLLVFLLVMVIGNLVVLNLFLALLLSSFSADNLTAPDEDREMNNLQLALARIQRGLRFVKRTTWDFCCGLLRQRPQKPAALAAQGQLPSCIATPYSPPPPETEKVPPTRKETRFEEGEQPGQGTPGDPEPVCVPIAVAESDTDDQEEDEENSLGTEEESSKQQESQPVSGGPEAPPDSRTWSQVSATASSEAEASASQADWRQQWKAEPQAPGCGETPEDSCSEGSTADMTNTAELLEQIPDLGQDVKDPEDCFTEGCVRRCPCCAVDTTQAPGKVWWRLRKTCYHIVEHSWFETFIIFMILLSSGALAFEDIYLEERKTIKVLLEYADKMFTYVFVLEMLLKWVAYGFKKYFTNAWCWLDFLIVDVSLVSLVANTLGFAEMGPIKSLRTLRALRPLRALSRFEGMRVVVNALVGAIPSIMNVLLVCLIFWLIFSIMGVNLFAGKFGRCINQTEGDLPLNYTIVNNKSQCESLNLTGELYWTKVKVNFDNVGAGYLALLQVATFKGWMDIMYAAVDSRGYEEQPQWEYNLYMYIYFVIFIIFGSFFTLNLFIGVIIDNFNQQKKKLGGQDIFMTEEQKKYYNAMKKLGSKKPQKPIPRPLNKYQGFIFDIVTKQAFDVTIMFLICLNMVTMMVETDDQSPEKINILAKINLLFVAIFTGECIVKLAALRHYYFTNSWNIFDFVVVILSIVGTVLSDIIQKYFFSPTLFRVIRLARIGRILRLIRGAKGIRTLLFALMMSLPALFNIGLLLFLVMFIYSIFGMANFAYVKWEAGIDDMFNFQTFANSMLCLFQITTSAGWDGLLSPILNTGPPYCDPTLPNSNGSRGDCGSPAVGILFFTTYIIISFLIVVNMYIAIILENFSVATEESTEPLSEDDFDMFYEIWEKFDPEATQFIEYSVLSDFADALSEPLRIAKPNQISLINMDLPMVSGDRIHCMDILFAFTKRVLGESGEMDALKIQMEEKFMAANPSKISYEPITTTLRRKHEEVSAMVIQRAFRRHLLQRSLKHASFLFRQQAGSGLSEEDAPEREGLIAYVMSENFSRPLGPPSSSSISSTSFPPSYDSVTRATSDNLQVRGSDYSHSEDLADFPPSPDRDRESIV
hNav1.4, sequence (P35499 whole entry): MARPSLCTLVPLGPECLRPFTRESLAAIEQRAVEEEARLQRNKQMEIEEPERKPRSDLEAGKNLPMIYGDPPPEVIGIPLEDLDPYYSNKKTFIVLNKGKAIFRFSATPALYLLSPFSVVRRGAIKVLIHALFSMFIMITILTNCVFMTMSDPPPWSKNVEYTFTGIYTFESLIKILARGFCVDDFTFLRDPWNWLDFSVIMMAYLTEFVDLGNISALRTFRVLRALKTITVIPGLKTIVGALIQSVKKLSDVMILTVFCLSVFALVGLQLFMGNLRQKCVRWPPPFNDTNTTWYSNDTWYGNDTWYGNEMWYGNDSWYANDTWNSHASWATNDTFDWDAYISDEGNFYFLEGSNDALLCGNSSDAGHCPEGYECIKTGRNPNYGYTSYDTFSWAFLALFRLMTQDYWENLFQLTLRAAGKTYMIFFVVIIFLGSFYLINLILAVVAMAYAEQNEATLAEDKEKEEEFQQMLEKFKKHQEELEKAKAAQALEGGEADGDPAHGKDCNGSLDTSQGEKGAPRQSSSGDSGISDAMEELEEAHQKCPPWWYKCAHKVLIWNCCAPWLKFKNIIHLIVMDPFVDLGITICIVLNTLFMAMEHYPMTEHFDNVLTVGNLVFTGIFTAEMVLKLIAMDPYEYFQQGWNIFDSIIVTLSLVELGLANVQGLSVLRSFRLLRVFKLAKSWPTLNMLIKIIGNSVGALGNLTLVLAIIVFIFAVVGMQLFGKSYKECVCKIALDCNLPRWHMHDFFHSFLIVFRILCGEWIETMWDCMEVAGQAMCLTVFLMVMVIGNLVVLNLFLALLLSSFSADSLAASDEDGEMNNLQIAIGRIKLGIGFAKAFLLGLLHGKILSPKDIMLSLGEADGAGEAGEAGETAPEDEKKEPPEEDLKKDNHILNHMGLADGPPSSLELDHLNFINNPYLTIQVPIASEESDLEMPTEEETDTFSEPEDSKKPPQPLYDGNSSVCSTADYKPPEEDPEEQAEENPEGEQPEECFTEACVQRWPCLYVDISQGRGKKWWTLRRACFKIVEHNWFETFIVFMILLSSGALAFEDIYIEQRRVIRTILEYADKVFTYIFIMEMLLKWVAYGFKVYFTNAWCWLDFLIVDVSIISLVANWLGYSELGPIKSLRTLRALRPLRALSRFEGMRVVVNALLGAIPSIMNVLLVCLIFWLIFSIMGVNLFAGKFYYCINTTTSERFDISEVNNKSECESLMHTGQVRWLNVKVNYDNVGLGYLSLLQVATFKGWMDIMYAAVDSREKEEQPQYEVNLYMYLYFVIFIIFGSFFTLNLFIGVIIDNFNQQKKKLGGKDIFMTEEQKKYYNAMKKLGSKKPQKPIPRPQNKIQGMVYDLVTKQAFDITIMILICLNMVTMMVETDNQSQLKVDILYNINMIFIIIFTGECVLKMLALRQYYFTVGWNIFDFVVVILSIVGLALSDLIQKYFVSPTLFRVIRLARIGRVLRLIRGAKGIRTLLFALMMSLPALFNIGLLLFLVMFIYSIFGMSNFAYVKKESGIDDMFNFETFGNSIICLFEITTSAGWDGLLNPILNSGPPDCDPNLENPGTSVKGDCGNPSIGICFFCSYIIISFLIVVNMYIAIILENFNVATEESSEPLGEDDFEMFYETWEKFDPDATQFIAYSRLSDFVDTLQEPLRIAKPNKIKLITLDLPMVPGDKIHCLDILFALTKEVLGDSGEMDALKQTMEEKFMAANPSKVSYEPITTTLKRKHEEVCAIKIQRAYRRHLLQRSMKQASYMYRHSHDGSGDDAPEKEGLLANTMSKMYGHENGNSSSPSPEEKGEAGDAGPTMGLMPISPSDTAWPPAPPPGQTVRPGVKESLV

As for `C#CC[C@H](N)C(=O)NCCOCCOCCOCCOCCC(=O)NCCCC[C@@H]1NC(=O)[C@@H]2CSSC[C@H](NC(=O)[C@H](Cc3ccc(O)cc3)NC(=O)[C@@H](N)CC#N)C(=O)N[C@@H](CCC(N)=O)C(=O)N[C@@H](CCCCN)C(=O)N[C@@H](Cc3c[nH]c4ccccc34)C(=O)N[C@@H](CCCC)C(=O)N[C@@H](Cc3c[nH]c4ccccc34)C(=O)N[C@@H]([C@@H](C)O)C(=O)N[C@H]3CSSC[C@H](NC(=O)[C@H](CCCNC(=N)N)NC(=O)[C@H](CC(C)C)NC(=O)CNC1=O)C(=O)N[C@@H](CCCCN)C(=O)N[C@@H](CC(C)C)C(=O)N[C@@H](Cc1c[nH]c4ccccc14)C(=O)N[C@H](C(=O)N[C@@H](CCCNC(=N)N)C(=O)N[C@@H](CCCCN)C(=O)N[C@H](C(=O)N[C@H](C(N)=O)[C@@H](C)CC)[C@@H](C)CC)CSSC[C@H](NC(=O)[C@H](C)NC(=O)[C@H](CCCNC(=N)N)NC(=O)[C@H](CCCCN)NC(=O)[C@H](CO)NC(=O)[C@H](CC(=O)O)NC3=O)C(=O)N2` [compound 385], on hNav1.7 (tonic block), the IC50 stood at 0.00364 µM. Further, the Nav1.5/Nav1.7 on hNav1.5 (ratio of PX tonic IC50 values) was determined as 0. The Nav1.4/Nav1.7 on hNav1.4 (ratio of PX tonic IC50 values) came to 0.

For the molecule `CCCC[C@@H]1NC(=O)[C@H](Cc2c[nH]c3ccccc23)NC(=O)[C@H](CCCCN)NC(=O)[C@H](CCC(N)=O)NC(=O)[C@@H](NC(=O)[C@H](Cc2ccc(O)cc2)NC(=O)[C@@H](N)Cc2cn(CCOCCOCCOCCOCCOCCOCCOCCOCCOCCOCCOCCNC(=O)CSCc3ccccc3)nn2)CSSC[C@@H]2NC(=O)[C@@H]3CSSC[C@@H](C(=O)N[C@@H](CCCNC(=N)N)C(=O)N[C@@H](CCCCN)C(=O)N[C@H](C(=O)N[C@H](C(N)=O)[C@@H](C)CC)[C@@H](C)CC)NC(=O)[C@H](Cc4c[nH]c5ccccc45)NC(=O)[C@H](CC(C)C)NC(=O)[C@H](CCCCN)NC(=O)[C@H](CSSC[C@H](NC(=O)[C@H]([C@@H](C)O)NC(=O)[C@H](Cc4c[nH]c5ccccc45)NC1=O)C(=O)N[C@@H](CC(=O)O)C(=O)N[C@@H](CO)C(=O)N[C@@H](CCCCN)C(=O)N[C@@H](CCCNC(=N)N)C(=O)N[C@@H](C)C(=O)N3)NC(=O)[C@H](CCCNC(=N)N)NC(=O)[C@H](CC(C)C)NC(=O)CNC(=O)[C@H](CCC(=O)O)NC2=O` [compound 427], the half-inhibitory concentration (IC50) is 0.0014 µM on hNav1.7 (setting [1]), 1.98 µM at hNav1.5 and 0.013 µM on hNav1.4. The Nav1.4/Nav1.7 on hNav1.4 (ratio of PX IC50 values) is on record as 9.

On to `CCCC[C@@H]1NC(=O)[C@H](Cc2c[nH]c3ccccc23)NC(=O)[C@H](CCCCN)NC(=O)[C@H](CCC(N)=O)NC(=O)[C@@H](NC(=O)[C@H](Cc2ccc(O)cc2)NC(=O)[C@@H](N)CC#N)CSSC[C@@H]2NC(=O)[C@@H]3CSSC[C@@H](C(=O)N[C@@H](CCCNC(=N)N)C(=O)N[C@@H](CCCCN)C(=O)N[C@@H](CCC(=O)O)C(=O)N[C@H](C(N)=O)[C@@H](C)CC)NC(=O)[C@H](Cc4c[nH]c5ccccc45)NC(=O)[C@H](CC(C)C)NC(=O)[C@H](CCCCN)NC(=O)[C@H](CSSC[C@H](NC(=O)[C@H]([C@@H](C)O)NC(=O)[C@H](Cc4c[nH]c5ccccc45)NC1=O)C(=O)N[C@@H](CC(=O)O)C(=O)N[C@@H](CO)C(=O)N[C@@H](CCCCN)C(=O)N[C@@H](CCCNC(=N)N)C(=O)N[C@@H](C)C(=O)N3)NC(=O)[C@H](CCCNC(=N)N)NC(=O)[C@H](CC(C)C)NC(=O)CNC(=O)[C@H](Cc1cn(CCCOCCOCCOCCOCCOCCOCCOCCOCCOCCOCCN)nn1)NC2=O` [compound 443], for which the half-inhibitory concentration (IC50) at hNav1.7 (setting [1]) is 0.00562 µM; on hNav1.5 it was 1.33 µM; at hNav1.4, 0.172 µM.

The IC50 is the concentration that gives 50% inhibition.

The values above are taken from patent US9636418B2 (priority 2013, dated 2017).
